# Measured values published in patent US20240041899A1, “SOLID PREPARATION” (ASKA Pharmaceutical Co., Ltd., priority 2020, published 2024).
# Experiments:
# [1] = test system: bladder specimen of high-week-old male rats; experiment: Test Example 3: isometric contraction test of bladder specimen from high-week-old male rats after oral dosing; type: in vivo; details: 22-week-old male rats, oral once a day 2 weeks, 10 mg/kg, compared with Group C (dutasteride 0.3 mg/kg)
# Description: High-week-old male rats (22-week-old; Charles River Laboratories Japan, Inc.) were examined and evaluated for the relationship between the test substances and the bladder and urethra contraction reaction. Since the rats are high-week-old, the rats are a model in which the prostate is predicted to be enlarged.
# A test substance was orally administered to the high-week-old male rats repeatedly at a frequency of once a day over two (2) weeks, and then, from each rat, a bladder specimen was extracted. The bladder specimen was suspended at a resting tension of about 9.8 mN in a constant-temperature Magnus tube (37° C.) filled with a physiological salt solution aerated with 95% 02-5% CO2 gas and was subjected to an isometric contraction test by applying a square-wave electrical field stimulation (EFS, Amplitude; 0.3 ms, Frequency; 1, 2, 5, 10, 20 Hz, Duration; 5 s); or Carbachol (CCH, 100 nmol/L to 100 μmol/L) and KCl (40, 80 mmol/L).
# Solvent group (control group): 0.5 v/v % Polysorbate 80 solution, 10 mL/kg (n=6) • Group A: Compound A, 10 mg/kg (n=6) • Group C: Compound C (dutasteride), 0.3 mg/kg (n=6)
# [2] = test system: rats having the urination disorder associated with diabetes; experiment: Test Example 4: urination disorder model associated with streptozocin-induced diabetes (tissue weights, blood glucose, cystometry, nomogram); type: in vivo; details: for Bladder weight / Blood glucose level / Kidney weight / Prostate weight, dorsolateral prostate / Prostate weight, ventral prostate / Prostate weight, whole / Seminal vesicle weight: 4 weeks; for Bladder weight / Blood glucose level / Kidney weight / Prostate weight, dorsolateral prostate / Prostate weight, ventral prostate / Prostate weight, whole / Seminal vesicle weight / Body weight: average ± SD; for Dorsolateral prostate atrophy rate / Seminal vesicle atrophy rate / Ventral prostate atrophy rate / Whole prostate atrophy rate: relative to solvent group; for Body weight: model with induced diabetes (STZ), male rats
# Experimental: As described below, as a urination disorder model, a urination disorder model associated with diabetes was prepared to evaluate the urination disorder. This model has no benign prostatic hyperplasia and is a model of a urination disorder associated with neuropathy and smooth muscle contraction disorder.
# The body weights of rats (male, Crl:CD(SD), 5-week-old; Charles River Laboratories Japan, Inc.) were measured. After the rats were fasted overnight, the blood was collected from the caudal vein to measure the fasting blood glucose. On the basis of the body weight and the fasting blood glucose level, the rats were grouped or divided into two (2) groups by randomized, multivariable block allocation. The day after the rats were grouped, a first group received intraperitoneal administration of a citrate buffer (pH 4.5) (10 mL/kg) having a concentration of 0.1 mmol/L, and a second group received intraperitoneal administration of streptozocin (STZ; Sigma-Aldrich) (50 mg/kg). Streptozocin (STZ) was administered in the form of a solution of streptozocin having a concentration of 5 mg/mL in the citrate buffer.
# About one (1) week after streptozocin (STZ) was administered, the body weight and the fasting blood glucose were measured. In the streptozocin (STZ) administration group (the second group), individuals having a fasting blood glucose level of not less than 300 mg/dL were used as animals with induced diabetes. These animals with induced diabetes are a model having no abnormality of the prostate (having no benign prostatic hyperplasia). On the basis of the body weight and the fasting blood glucose level, the animals (models) with induced diabetes were grouped or divided into three (3) groups by randomized, multivariable block allocation.
# To the three model groups with induced diabetes, a 0.5 v/v % Polysorbate 80 solution (0.5% P) (10 mL/kg), the compound A (3 mg/kg), and the compound A (10 mg/kg) were orally administered, respectively, wherein the administration schedule in all groups was a frequency of once a day, only on weekdays, over four (4) weeks. Moreover, to the above-mentioned first group, a 0.5 v/v % Polysorbate 80 solution (0.5% P) (10 mL/kg) was orally administered in the same administration schedule (normal group). On the last day of administration, a cannula was inserted into and secured to the dome of the bladder under isoflurane anesthesia, and cystometry (Cystometogram, CMG) was conducted in the order of under awake condition and under urethane anesthesia to measure the intravesical pressure, the voided volume, and the residual urine volume. After the completion of the measurement, the blood was collected under deep isoflurane anesthesia, and then the prostate (ventral prostate, dorsolateral prostate), the seminal vesicle, the bladder, and the kidney were extracted and were each weighed. Moreover, the blood glucose level in the collected blood was measured.
# The test substances and the dosage in the test system (rats having the urination disorder associated with diabetes) are as follows. • Normal group: citrate buffer 10 mL/kg (intraperitoneal administration), 0.5% P 10 mL/kg (oral administration) (n=10) • Solvent group (control group): STZ 50 mg/kg (intraperitoneal administration), 0.5% P 10 mL/kg (oral administration) (n=10) • Group A3: STZ 50 mg/kg (intraperitoneal administration), Compound A 3 mg/kg (oral administration) (n=10) • Group A10: STZ 50 mg/kg (intraperitoneal administration), Compound A 10 mg/kg (oral administration) (n=9)
# The resulting data of the intravesical pressure, the voided volume, and the residual urine volume were analyzed, and the bladder capacity (mL), the residual urine volume […], and the urination efficiency (%) were determined as urination parameters in each urination. With respect to these urination parameters, the average value of two measurements was calculated and was taken as a measured value of each individual. […]
# [3] = STZ diabetes model, 3 mg/kg, vs solvent group
# [4] = STZ diabetes model, 10 mg/kg, vs solvent group
# [5] = STZ diabetes model, Group A3 and Group A10 (3 and 10 mg/kg)
# [6] = STZ diabetes model, oral 3 mg/kg
# [7] = STZ diabetes model, oral 10 mg/kg
compound,measurement,setting,value
"CC(=O)O[C@]1(C(C)=O)C[C@@H](O)[C@H]2[C@@H]3C=C(Cl)C4=CC(=O)OC[C@]4(C)[C@H]3CC[C@@]21C [Compound A, 17α-acetoxy-6-chloro-15β-hydroxy-2-oxa-4,6-pregnadiene-3,20-dione]",bladder contraction tension caused by square-wave electrical field stimulation or Carbachol and KCl,[1],significantly strong or has a strong directionality
same,"bladder capacity, cystometry (CMG) under awake condition",[2]; [3],significantly reduced
same,"residual urine volume, cystometry (CMG) under anesthesia",[2]; [3],significantly decreased
same,"residual urine volume, cystometry (CMG) under awake condition",[2]; [3],significantly reduced
same,"urination efficiency, cystometry (CMG) under awake condition",[2]; [3],improved
same,"bladder capacity, cystometry (CMG) under awake condition",[2]; [4],significantly reduced
same,"residual urine volume, cystometry (CMG) under anesthesia",[2]; [4],significantly decreased
same,"residual urine volume, cystometry (CMG) under awake condition",[2]; [4],significantly reduced
same,"bladder capacity, cystometry (CMG) under anesthesia","[2]; STZ diabetes model, 10 mg/kg, vs solvent group (P=0.0336, Williams's multiple comparison test)",reduced
same,"urination efficiency, cystometry (CMG) under awake condition","[2]; STZ diabetes model, 10 mg/kg, vs solvent group (P=0.0359, Williams's multiple comparison test)",significantly improved
same,"action on the body weight, the blood glucose level, or the bladder and kidney weights",[2]; [5],no action or influence
same,"urination efficiency, cystometry (CMG) under anesthesia",[2]; [5],improved
same,bladder contraction force on urination by nomogram analysis,"[2]; STZ diabetes model, Group A3 and Group A10 (3 and 10 mg/kg), in comparison with the solvent group",strong bladder contraction force
same,prostate and seminal vesicle weights,"[2]; STZ diabetes model, Group A3 and Group A10 (3 and 10 mg/kg), vs solvent group",significantly decreased
same,therapeutic effect on diabetes,"[2]; STZ diabetes model, blood glucose level of Group A3 and Group A10 relative to the solvent group",no therapeutic effect
same,Bladder weight,[2]; [6],79.3 ± 17.5 mg/100 g body weight
same,Blood glucose level,[2]; [6],912.8 ± 177.3 mg/dL
same,Kidney weight,[2]; [6],1114.9 ± 189.2 mg/100 g body weight
same,"Prostate weight, dorsolateral prostate",[2]; [6],35.3 ± 7.8 mg/100 g body weight
same,"Prostate weight, ventral prostate",[2]; [6],62.2 ± 11.4 mg/100 g body weight
same,"Prostate weight, whole",[2]; [6],97.5 ± 17.7 mg/100 g body weight
same,Seminal vesicle weight,[2]; [6],44.3 ± 9.6 mg/100 g body weight
same,Dorsolateral prostate atrophy rate,[2]; [6],(44.2%)
same,Seminal vesicle atrophy rate,[2]; [6],(41.8%)
same,Ventral prostate atrophy rate,[2]; [6],(43.0%)
same,Whole prostate atrophy rate,[2]; [6],(43.4%)
same,Bladder weight,[2]; [7],72.9 ± 11.6 mg/100 g body weight
same,Blood glucose level,[2]; [7],846.7 ± 342.5 mg/dL
same,Kidney weight,[2]; [7],1171.0 ± 213.3 mg/100 g body weight
same,"Prostate weight, dorsolateral prostate",[2]; [7],28.8 ± 6.1 mg/100 g body weight
same,"Prostate weight, ventral prostate",[2]; [7],53.1 ± 13.5 mg/100 g body weight
same,"Prostate weight, whole",[2]; [7],81.9 ± 19.0 mg/100 g body weight
same,Seminal vesicle weight,[2]; [7],37.9 ± 6.4 mg/100 g body weight
same,Dorsolateral prostate atrophy rate,[2]; [7],(54.5%)
same,Seminal vesicle atrophy rate,[2]; [7],(50.2%)
same,Ventral prostate atrophy rate,[2]; [7],(51.3%)
same,Whole prostate atrophy rate,[2]; [7],(52.5%)
same,Body weight,[2]; oral 3 mg/kg once a day on weekdays 4 weeks,327.5 ± 51.3 g
same,Body weight,[2]; oral 10 mg/kg once a day on weekdays 4 weeks,356.4 ± 80.9 g
